In PubChem BioAssay (NCI):
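Growth conditions: 96-well plates. Treatment: test compound, 48 hours, 5 concentrations. Analysis: linear interpolation between bracketing concentrations; unreached endpoints set to highest concentration. The concentration for full growth arrest is given as TGI.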

Experiments:
Experiment in all cases: NCI tumour cell line growth inhibition, 48 h
CCRF-CEM leukemia = test system: CCRF-CEM leukemia
UACC-257 melanoma = test system: UACC-257 melanoma
MDA-MB-231 breast = test system: MDA-MB-231 breast
BT-549 breast = test system: BT-549 breast
HCT-15 colon = test system: HCT-15 colon
OVCAR-3 ovarian = test system: OVCAR-3 ovarian
DU-145 prostate = test system: DU-145 prostate
MDA-N = test system: MDA-N
KM12 colon = test system: KM12 colon
TK-10 renal = test system: TK-10 renal
MCF7 breast = test system: MCF7 breast
SNB-19 CNS = test system: SNB-19 CNS
RXF 393 renal = test system: RXF 393 renal
OVCAR-4 ovarian = test system: OVCAR-4 ovarian
HCC-2998 colon = test system: HCC-2998 colon
MOLT-4 leukemia = test system: MOLT-4 leukemia
SK-MEL-5 melanoma = test system: SK-MEL-5 melanoma
UO-31 renal = test system: UO-31 renal
MDA-MB-435 = test system: MDA-MB-435
LOX IMVI melanoma = test system: LOX IMVI melanoma
HT29 colon = test system: HT29 colon
SK-MEL-2 melanoma = test system: SK-MEL-2 melanoma
SF-268 CNS = test system: SF-268 CNS
ACHN renal = test system: ACHN renal
K-562 leukemia = test system: K-562 leukemia
OVCAR-8 ovarian = test system: OVCAR-8 ovarian
SW-620 colon = test system: SW-620 colon
HCT-116 colon = test system: HCT-116 colon
HS 578T breast = test system: HS 578T breast
HOP-92 NSCLC = test system: HOP-92 NSCLC
COLO 205 colon = test system: COLO 205 colon
SK-OV-3 ovarian = test system: SK-OV-3 ovarian
UACC-62 melanoma = test system: UACC-62 melanoma
A498 renal = test system: A498 renal
HOP-62 NSCLC = test system: HOP-62 NSCLC
NCI-H226 lung = test system: NCI-H226 lung
A549 NSCLC = test system: A549 NSCLC
HL-60(TB) leukemia = test system: HL-60(TB) leukemia
M14 melanoma = test system: M14 melanoma
NCI-H460 lung = test system: NCI-H460 lung
OVCAR-5 ovarian = test system: OVCAR-5 ovarian
SF-539 CNS = test system: SF-539 CNS
PC-3 prostate = test system: PC-3 prostate
IGROV1 ovarian = test system: IGROV1 ovarian
NCI/ADR-RES ovarian = test system: NCI/ADR-RES ovarian
EKVX NSCLC = test system: EKVX NSCLC
NCI-H522 lung = test system: NCI-H522 lung
SF-295 CNS = test system: SF-295 CNS
CAKI-1 renal = test system: CAKI-1 renal
NCI-H23 lung = test system: NCI-H23 lung
U251 CNS = test system: U251 CNS
SR leukemia = test system: SR leukemia
786-0 renal = test system: 786-0 renal
SN12C renal = test system: SN12C renal
SK-MEL-28 melanoma = test system: SK-MEL-28 melanoma
T-47D breast = test system: T-47D breast

Measured: TGI

Nc1ccc2c(c1)S(=O)(=O)c1cc(O)ccc1O2
> 100 µM: CCRF-CEM leukemia | UACC-257 melanoma | MDA-MB-231 breast | BT-549 breast | HCT-15 colon | OVCAR-3 ovarian | DU-145 prostate | MDA-N | KM12 colon | TK-10 renal | MCF7 breast | SNB-19 CNS | RXF 393 renal | OVCAR-4 ovarian | HCC-2998 colon | MOLT-4 leukemia | SK-MEL-5 melanoma | UO-31 renal | MDA-MB-435 | LOX IMVI melanoma | HT29 colon | SK-MEL-2 melanoma | SF-268 CNS | ACHN renal | K-562 leukemia | OVCAR-8 ovarian | SW-620 colon | HCT-116 colon | HS 578T breast | HOP-92 NSCLC | COLO 205 colon | SK-OV-3 ovarian | UACC-62 melanoma | A498 renal | HOP-62 NSCLC | NCI-H226 lung | A549 NSCLC | HL-60(TB) leukemia | M14 melanoma | NCI-H460 lung | OVCAR-5 ovarian | SF-539 CNS | PC-3 prostate | IGROV1 ovarian | NCI/ADR-RES ovarian | EKVX NSCLC | NCI-H522 lung | SF-295 CNS | CAKI-1 renal | NCI-H23 lung | U251 CNS | SR leukemia | 786-0 renal | SN12C renal | SK-MEL-28 melanoma | T-47D breast
